According to US20120214862A1, “MODULATION OF FACTOR 7 EXPRESSION” (ISIS Pharmaceuticals, Inc., priority 2009, published 2012):
e = 2'-O-(2-methoxyethyl) (MOE); d = 2'-deoxy (DNA)

Tested on: murine Factor 7 mRNA
Assay: Liver Factor 7 mRNA by real-time RT-PCR in treated BALB/c mice
Assay type: in vivo, mouse
Settings: for % inhibition of murine Factor 7 mRNA: BALB/c liver; for % inhibition of murine Factor 7 mRNA / % inhibition of Factor 7 mRNA: relative to PBS control; for % inhibition of Factor 7 mRNA: liver; for % inhibition of Factor 7 mRNA (liver): mice
Description: A control group of mice was injected subcutaneously with PBS twice a week for 3 weeks. After the treatment period, whole liver was collected for RNA and protein analysis, and plasma was collected for clotting analysis (PT/aPTT).
(§1) RNA was extracted from liver tissue for real-time RT-PCR analysis of Factor 7.
A control group of 3 mice was injected with a single dose of PBS, and mice in this group were sacrificed on day 1. Mice in all groups were sacrificed by cervical dislocation following anesthesia with 150 mg/kg ketamine mixed with 10 mg/kg xylazine administered by intraperitoneal injection. Liver was harvested for RNA analysis and plasma was collected for clotting analysis (PT and aPTT).
as §1
Mice from the first group were sacrificed on days 1 and 3 after the single dose. […] A control group of 3 mice was injected with PBS in a single dose. Mice from the control group were sacrificed 1 day later. Mice in all groups were sacrificed by cervical dislocation following anesthesia with 150 mg/kg ketamine mixed with 10 mg/kg xylazine administered by intraperitoneal injection. Liver was harvested for RNA analysis and plasma was collected for clotting analysis (PT and aPTT) for mice in all groups.
RNA was extracted from liver tissue for quantitative RT-PCR analysis of Factor 7.
Two control groups of BALB/c mice were treated with PBS, administered subcutaneously twice a week for 3 weeks. Thrombus formation was induced with FeCl3 in half of the mice while the rest of the mice were assayed for tail bleeding. […] Thrombus formation was induced with FeCl3 in all groups of the VT mice except the first control group.
as §1
A fifth group of BALB/c mice was treated with 3 mg/kg of warfarin, administered intraperioneally daily for 6 days. Four hours after the last dose of warfarin, mice were sacrificed. A control group of BALB/c mice were treated with PBS, administered subcutaneously twice a week for 3 weeks. Two days after the last dose of PBS, mice were anesthetized with 150 mg/kg ketamine mixed with 10 mg/kg xylazine administered by intraperitoneal injection. Thrombus formation was induced with FeCl3 in groups of mice except the first control group.

[1] = single dose 50 mg/kg, BALB/c mice

CCATAGAACAGCTTCACAGG (sugars from the 5' end e5 d10 e5, backbone and methylation of C not given here) [ISIS 403102]
% inhibition of murine Factor 7 mRNA (5 mg/kg sc twice a week for 3 weeks): 64%
% inhibition of murine Factor 7 mRNA (10 mg/kg sc twice a week for 3 weeks): 84%
% inhibition of murine Factor 7 mRNA (25 mg/kg sc twice a week for 3 weeks): 96%
% inhibition of murine Factor 7 mRNA (50 mg/kg sc twice a week for 3 weeks): 99%
reduction of murine Factor 7 (liver mRNA) over PBS control (5-50 mg/kg sc twice a week for 3 weeks, BALB/c mice): dose-dependent reduction
% Inhibition of murine Factor 7 mRNA (liver) (BALB/c mice, single dose 50 mg/kg, day 1): 61%
% Inhibition of murine Factor 7 mRNA (liver) (BALB/c mice, single dose 50 mg/kg, day 2): 87%
% Inhibition of murine Factor 7 mRNA (liver) (BALB/c mice, single dose 50 mg/kg, day 3): 92%
% Inhibition of murine Factor 7 mRNA (liver) (BALB/c mice, single dose 50 mg/kg, day 4): 92%
% Inhibition of murine Factor 7 mRNA (liver) (BALB/c mice, single dose 50 mg/kg, day 6): 86%
% Inhibition of murine Factor 7 mRNA (liver) (BALB/c mice, single dose 50 mg/kg, day 8): 80%
% Inhibition of murine Factor 7 mRNA (liver) (BALB/c mice, single dose 50 mg/kg, day 12): 72%
% Inhibition of murine Factor 7 mRNA (liver) (BALB/c mice, single dose 50 mg/kg, day 24): 11%
% Inhibition of murine Factor 7 mRNA (liver) (BALB/c mice, single dose 50 mg/kg, day 56): 0%
Factor 7 inhibition over time (Example 13, 6 doses of 25 mg/kg sc, days 14, 28, 42 and 56 after last dose): declined progressively
inhibition of Factor 7 mRNA, onset (Example 13, single dose 25 mg/kg sc): inhibition of Factor 7 as early as day 1
reduction of Factor 7 mRNA in comparison to the PBS control (Example 14, 25, 37.5 or 50 mg/kg sc twice a week for 3 weeks, FeCl3 VT model): significant dose-dependent reduction
reduction of Factor 7 mRNA in comparison to the PBS control (Example 15, 5-40 mg/kg sc twice a week for 3 weeks): significant dose-dependent reduction
% inhibition of Factor 7 mRNA (BALB/c mice, FeCl3 VT model (Example 15), 5 mg/kg s.c. twice a week for 3 weeks): 59%
% inhibition of Factor 7 mRNA (BALB/c mice, FeCl3 VT model (Example 15), 10 mg/kg s.c. twice a week for 3 weeks): 84%
% inhibition of Factor 7 mRNA (BALB/c mice, FeCl3 VT model (Example 15), 20 mg/kg s.c. twice a week for 3 weeks): 95%
% inhibition of Factor 7 mRNA (BALB/c mice, FeCl3 VT model (Example 15), 40 mg/kg s.c. twice a week for 3 weeks): 99%
% inhibition of Factor 7 mRNA (BALB/c mice, FeCl3 VT model, 25 mg/kg s.c. twice a week for 3 weeks): 24%
% inhibition of Factor 7 mRNA (BALB/c mice, FeCl3 VT model, 37.5 mg/kg s.c. twice a week for 3 weeks): 74%
% inhibition of Factor 7 mRNA (BALB/c mice, FeCl3 VT model, 50 mg/kg s.c. twice a week for 3 weeks): 69%
% inhibition of Factor 7 mRNA (liver) (25 mg/kg s.c. twice a week, 2 doses, 3 days after last dose): 86%
% inhibition of Factor 7 mRNA (liver) (25 mg/kg s.c. twice a week, 4 doses, 3 days after last dose): 91%
% inhibition of Factor 7 mRNA (liver) (25 mg/kg s.c. twice a week, 6 doses, 2 days after last dose): 83%
% inhibition of Factor 7 mRNA (liver) (25 mg/kg s.c. twice a week, 6 doses, 7 days after last dose): 88%
% inhibition of Factor 7 mRNA (liver) (25 mg/kg s.c. twice a week, 6 doses, 14 days after last dose): 64%
% inhibition of Factor 7 mRNA (liver) (25 mg/kg s.c. twice a week, 6 doses, 28 days after last dose): 33%
% inhibition of Factor 7 mRNA (liver) (25 mg/kg s.c. twice a week, 6 doses, 42 days after last dose): 5%
% inhibition of Factor 7 mRNA (liver) (25 mg/kg s.c. twice a week, 6 doses, 56 days after last dose): 11%
% inhibition of Factor 7 mRNA (liver) (25 mg/kg s.c., 1 dose, 1 day after last dose): 44%
% inhibition of Factor 7 mRNA (liver) (25 mg/kg s.c., 1 dose, 3 days after last dose): 74%
duration of action [1]: at least 24 days
peak effect of a single dose occurs on [1]: ~4 days
inhibition of Factor 7 mRNA (single dose 50 mg/kg, day 4): 92%
inhibition of Factor 7 mRNA (single dose 50 mg/kg, day 24): 11%
Factor 7 mRNA levels (single dose 50 mg/kg, day 56): equal to that of the PBS control
